These results are taken from US5466716A, “Liposomal trimethylsphingosine” (The Biomembrane Institute, priority 1994, dated 1995).

Each structure is given as a SMILES string.

The subject of one experiment is protein kinase-C. The experiment in a line: protein kinase-C activity (A431 cell PK-C, liposome method, histone III-S or myelin basic protein). It counts as biochemical, human. The conditions noted are these: histone III-S and myelin basic protein substrates, FIG. 4. The source says:
FIGS. 4A and 4B depict the effect of sphingosine derivatives on protein kinase-C activity in A431 cells. The standard liposome method of Kraft and Anderson (Nature 301, 621, 1983) was used. […] In FIG. 4B radioactive incorporation into histone III-s is depicted on the ordinate. In both panels SP represents sphingosine, MMS represents N-monomethylsphingosine, DMS represents N,N-dimethylsphingosineand TMS represents N,N,N-trimethylsphingosine.
In another in vitro assay, the influence of various compounds on PK-C activity can be monitored. Certain tumor cells present high levels of PK-C activity. The human epidermoid carcinoma cell line A-431 (ATCC No. CRL 1555) can be used in a bioassay for PK-C activity as described in Igarashi et al. (supra). Briefly, phosphatidylserine (5 μg/tube) and 1,2-diolein (0.05 μg/tube), with or without an appropriate quantity of a sphingosine derivative sample, are added in an organic solvent, ethanol or ethanol/chloroform, to a 1.5 ml tube (Sarstedt) and the mixture is evaporated under a N2 stream. The lipid mixture is sonicated in about 30 μl of 20 mM Tris-HCl (pH 7.5) for 30 minutes. The resulting liposomes are supplemented with a buffer mixture comprising 25 mM Tris-HCl (pH 7.5), 10 mM MgCl2, 400 μM EDTA, 50 μM EGTA, 500 μM CaCl2, 200 μg/ml histone III-S or myelin basic protein and 20 μM γ[^32 P]-ATP (2×10^6 cpm) to a final volume of about 90 μl. […]

Another experiment deals with F1 melanoma cells. The experiment in a line: melanoma F1 cell proliferation (thymidine incorporation). It is filed as cell-based. The conditions noted are these: F1, FIG. 5B. The text has this: FIGS. 5A and 5B depict the effect of N,N,N-trimethylsphingosine (open circles), N,N-dimethylsphingosine (solid circles) and sphingosine (open squares) on two melanoma cell lines, BL6, a highly malignant cell line (in FIG. 5A) and F1, a cell line of low malignancy, (in FIG. 5B). Cell proliferation was evidenced by tritiated thymidine incorporation into DNA.
An in vitro assay relying on tritiated thymidine incorporation can be used to ascertain the effect of various compounds on cell proliferation. Briefly, tumor cells are seeded in flat bottom 96 well plates (Corning, N.Y.) at a concentration of 2×10^4 cells per well. The cells are cultured for 2 days in DMEM containing various concentrations of sphingoid, which is added as a PBS solution. The medium then is supplemented with tritiated thymidine at a concentration of 0.5 μCi per well. Following a six hour incubation the cells are collected using the PHD Cell Harvester (Cambridge Technology, Cambridge, Mass.) and amounts of incorporated radioactivity are determined after adding a suitable cell lysing agent and scintillation cocktail, such as ScintiVerse BD (Fisher Scientific, Fairlawn, Calif.) which performs both functions.
Certain cancer cells show a higher metastatic potential and invasive capability than others. For example the BL6 and F10 melanoma cell lines are highly metastatic and invasive. […]
In general terms: Dividing cells build labelled thymidine or BrdU into new DNA.

In another experiment the test system is BL6 cells. Put plainly: BL6 lung metastatic deposits in mice. It is filed as in vivo. The source says: FIGS. 6A-C depict the effect of N,N,N-trimethylsphingosine on lung metastatic deposits after intravenous injection of BL6 cells into mice. Each graph represents the mean and standard deviation of results obtained in 8 animals. In FIG. 6A the open bars depict the total number of lung colony deposits; the stippled bars depict the number of lung colonies with a diameter of greater than 1 mm; and the solid bars depict the number of lung colonies with a diameter of less than 1 mm. Bars 1-3 depict the number of deposits observed 14 days after injection. Bars 4-6 depict the number of lung colony deposits in animals that received BL6 cells and 1 minute later received 0.2 mg of N,N,N-trimethylsphingosine (TMS). […]
In FIG. 6B the number of lung colonies was determined 16 days after treatment, the treatment consisting of varying doses and routes of administration. […]
In FIG. 6C the dose responsiveness of BL6 metastatic potential to TMS is presented. […] Sixteen days after treatment, the mice were sacrificed, lungs opened and the number of colonies in the lungs were counted under a dissecting microscope.
The effectiveness of TMS in vivo is summarized in the graphs comprising FIG. 6. BL6 cells were injected into mice and metastatic deposits in the lung were assessed after various treatments including route and timing of administration.

Consider `CCCCCCCCCCCCC/C=C/[C@@H](O)[C@H](CO)[N+](C)(C)C` [TMS, N,N,N-trimethylsphingosine], for which, in the experiment on protein kinase-C, the “ability to inhibit PK-C” value is recorded as “superior to the other compounds”. Further, the “inhibition of cell growth” value with F1 melanoma cells was “more effective than DMS and sphingosine”. The “dose responsiveness of lung tumor colonization” value in the experiment on BL6 cells (FIG. 6B, 6C) was “distinct dose responsiveness”. For the same molecule, in the experiment on BL6 cells (irrespective of route or timing, FIG. 6), the “suppression of lung colonization and tumor development” value is “effective in suppressing lung colonization and tumor development”.
